pIC50, pKi: −log10 of the molar value. Activity calls are given as the source filed them. The calls are words filed in the database; no cut-off is given here.
Experiments:
Adenosine receptor A2a [1] = target: Adenosine receptor A2a (Rattus norvegicus, UniProt P30543); assay: Antagonist activity at adenosine A2A receptor in 5-HT-treated Wistar rat femoral vein assessed as inhibition of 2-octyn-1-yladenosine-induced vasodilation incubated for 10 mins prior to addition of 5-HT
Mus musculus [2] = assay: Anticataleptogenic activity in ddY mouse assessed as reduction in haloperidol-induced catelepsy at 3 mg/kg, po measured after 1 to 7 hrs; assay type: functional, organism-based; set-up: dose 3 mg/kg
Mus musculus [3] = assay: Anticataleptogenic activity in po dosed ddY mouse assessed as reduction in haloperidol-induced catelepsy measured after 5 hrs; assay type: functional; details: for minimal effective dose: read-out: MED
[4] = target: Adenosine receptor A2a (Rattus norvegicus) (UniProt P30543); assay: Potency index, ratio of istradefylline IC50 to compound IC50 for adenosine A2A receptor in 5-HT-treated Wistar rat femoral vein assessed as inhibition of 2-octyn-1-yladenosine-induced vasodilation
Rattus norvegicus [5] = assay: Antiparkinsonian activity in unilateral 6-hydroxydopamine-lesioned Sprague-Dawley rat assessed as induction of stereotyped behavior at 3 mg/kg, po measured for 15 mins; assay type: functional, organism-based; set-up: dose 3 mg/kg
Adenosine receptor A2a [6] = target: Adenosine receptor A2a (Homo sapiens, UniProt P29274); assay: biochemical
Description: Displacement of [3H]-CGS-21680 from human adenosine A2A receptor expressed in HEK293 cells after 90 mins

Rattus norvegicus [7] = assay: Antiparkinsonian activity in unilateral 6-hydroxydopamine-lesioned Sprague-Dawley rat assessed as potentiation of L-DOPA-induced turning behavior at 3 mg/kg, po measured for 15 mins; assay type: functional, organism-based; set-up: dose 3 mg/kg

Adenosine receptor A2a (Rattus norvegicus, UniProt P30543), sequence (P30543 whole entry): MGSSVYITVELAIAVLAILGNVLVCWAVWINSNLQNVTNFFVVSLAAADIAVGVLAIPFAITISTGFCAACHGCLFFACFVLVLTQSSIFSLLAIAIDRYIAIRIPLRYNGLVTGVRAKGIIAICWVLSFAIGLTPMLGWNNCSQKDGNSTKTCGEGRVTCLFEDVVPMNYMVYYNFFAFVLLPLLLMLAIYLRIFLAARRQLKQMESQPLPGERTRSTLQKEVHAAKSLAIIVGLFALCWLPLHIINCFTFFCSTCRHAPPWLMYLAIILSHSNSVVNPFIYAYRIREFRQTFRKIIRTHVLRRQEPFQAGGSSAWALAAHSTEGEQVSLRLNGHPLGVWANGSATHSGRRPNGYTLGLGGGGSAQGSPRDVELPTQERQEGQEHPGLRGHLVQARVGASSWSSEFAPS
Adenosine receptor A2a (Homo sapiens, UniProt P29274), sequence (P29274 whole entry): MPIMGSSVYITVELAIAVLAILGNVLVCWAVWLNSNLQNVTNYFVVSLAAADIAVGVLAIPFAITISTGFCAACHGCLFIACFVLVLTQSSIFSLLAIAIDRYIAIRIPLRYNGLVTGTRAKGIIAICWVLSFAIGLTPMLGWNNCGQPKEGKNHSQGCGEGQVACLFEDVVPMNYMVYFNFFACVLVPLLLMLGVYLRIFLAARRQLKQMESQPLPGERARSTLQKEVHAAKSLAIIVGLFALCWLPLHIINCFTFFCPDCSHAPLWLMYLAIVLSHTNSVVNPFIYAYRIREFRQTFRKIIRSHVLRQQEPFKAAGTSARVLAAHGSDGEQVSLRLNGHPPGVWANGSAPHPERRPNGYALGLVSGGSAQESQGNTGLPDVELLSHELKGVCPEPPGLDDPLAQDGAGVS
Adenosine receptor A2a (Rattus norvegicus), sequence (P30543 whole entry): as the sequence (P30543 whole entry) above

Row | Structure (SMILES) | pIC50 (Adenosine receptor A2a [1]) | also measured
1 | CCn1c(=O)c2c(nc(/C=C/c3ccc(OC)c(OC)c3)n2C)n(CC)c1=O [ISTRADEFYLLINE] |  | Activity (Mus musculus [2]): Active; Activity (Mus musculus [3]): Dose-dependent effect; minimal effective dose (Mus musculus [3]): 3 mg/kg
2 | CCCCCCC#Cc1nc(N)c2ncn(CCC)c2n1 | < 5.00 | 
3 | CCCCCCC#Cc1nc(N)c2ncn(CC#N)c2n1 | < 5.00 | 
4 | C#CCn1cnc2c(N)nc(C#CCCCCCC)nc21 | 6.70 | 
5 | C#CCn1cnc2c(N)nc(C#CC3(O)CCCCC3)nc21 | 7.01 | 
6 | C=CCn1cnc2c(N)nc(C#CCCCCCC)nc21 | < 5.00 | 
7 | CCCCCCC#Cc1nc(N)c2ncn(CC)c2n1 | 5.17 | 
8 | CCCCCCC#Cc1nc(N)c2ncn(C)c2n1 | 5.05 | 
9 | CCCCCCC#Cc1nc(N)c2ncn(Cc3ccccc3)c2n1 | < 5.00 | 
10 | CCCCCCC#Cc1nc(N)c2ncn(C3CCCC3)c2n1 | < 5.00 | 
11 | CCCCCCC#Cc1nc(N)c2ncn(CCO)c2n1 | < 5.00 | 

Second part, led by results:

Row | pIC50 (Adenosine receptor A2a [1]) | Structure (SMILES) | also measured
12 | 7.12 | C#CCn1c(-c2ccccc2)nc2c(N)nc(C#CCCCCCC)nc21 | 
13 | 8.22 | C#CCn1c(Cl)nc2c(N)nc(C#CCCCCCC)nc21 | 
14 | 9.40 | C#CCn1c(-c2ccco2)nc2c(N)nc(C#CC3(O)CCCCC3)nc21 | Ratio IC50 [4]: 570
15 | 8.52 | C#CCn1c(Cl)nc2c(N)nc(C#CC3(O)CCCCC3)nc21 | 
16 | 9.30 | C#CCn1c(Br)nc2c(N)nc(C#CC3(O)CCCCC3)nc21 | 
17 | 8.72 | C#CCn1c(-n2nccn2)nc2c(N)nc(C#CCCCCCC)nc21 | 
18 | 7.64 | C#CCn1c(-c2cccc(F)c2)nc2c(N)nc(C#CCCCCCC)nc21 | 
19 | 8.29 | C#CCn1c(Br)nc2c(N)nc(C#CCCCCCC)nc21 | Activity (Rattus norvegicus [5]): inactive; Activity (Mus musculus [2]): Active; Activity (Mus musculus [3]): Dose-dependent effect; minimal effective dose (Mus musculus [3]): 3 mg/kg; pKi (Adenosine receptor A2a [6]): 9.25; Activity (Rattus norvegicus [7]): Active
20 | 8.44 | C#CCn1c(-c2ccco2)nc2c(N)nc(C#CCCCCCC)nc21 | 
